{"source": "patent US8258134B2", "about": "“Pyridazinone glucokinase activators” (Hoffmann-La Roche Inc., priority 2008, dated 2012)", "data": [{"target": "T1, Recombinant human liver GK1 (GST-GK) (Homo sapiens, UniProt P35557)", "T1 construct": "made in house; host or cells: E. coli", "T1 sequence (P35557 1-466 isoform P35557-2)": "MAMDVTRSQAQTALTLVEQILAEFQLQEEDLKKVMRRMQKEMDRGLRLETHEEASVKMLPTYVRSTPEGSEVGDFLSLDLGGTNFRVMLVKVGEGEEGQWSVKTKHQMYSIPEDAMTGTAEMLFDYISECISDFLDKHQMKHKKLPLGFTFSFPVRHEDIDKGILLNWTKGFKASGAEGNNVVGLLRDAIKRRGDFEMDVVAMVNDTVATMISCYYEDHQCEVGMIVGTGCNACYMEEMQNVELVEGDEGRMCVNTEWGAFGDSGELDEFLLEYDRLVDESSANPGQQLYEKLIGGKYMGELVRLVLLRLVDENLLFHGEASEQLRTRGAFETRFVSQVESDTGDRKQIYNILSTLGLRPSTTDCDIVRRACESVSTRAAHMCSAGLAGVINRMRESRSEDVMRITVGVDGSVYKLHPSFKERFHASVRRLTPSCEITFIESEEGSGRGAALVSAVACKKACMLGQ", "test": "Glucokinase in vitro assay (G6PDH-coupled NADH generation, OD340)", "format": "biochemical", "conditions": "5 mM D-glucose, 30° C., pH 7.1, 10% DMSO", "experimental": "Glucokinase In Vitro Assay Protocol: Glucokinase (GK) was assayed by coupling the production of glucose-6-phosphate to the generation of NADH with glucose-6-phosphate dehydrogenase (G6PDH, 0.75-1 k units/mg; Boehringer Mannheim, Indianapolis, Ind.) from Leuconostoc mesenteroides as the coupling enzyme (Scheme 2):\nRecombinant human liver GK1 was expressed in E. coli as a glutathione S-transferase fusion protein (GST-GK) [Liang et al, 1995] and was purified by chromatography over a glutathione-Sepharose 4B affinity column using the procedure provided by the manufacturer (Amersham Pharmacia Biotech, Piscataway, N.J.).\nThe assay was conducted at 30° C. in a flat bottom 96-well tissue culture plate from Costar (Cambridge, Mass.) with a final incubation volume of 120 μL. The incubation reaction contained the following: 25 mM Hepes buffer (pH 7.1), 25 mM KCl, 5 mM D-glucose, 1 mM ATP, 1.8 mM NAD, 2 mM MgCl2, 1 μM sorbitol-6-phosphate, 1 mM dithiothreitol, test drug or 10% DMSO, ˜7 units/ml G6PDH, and GK (see below). All organic reagents were >98% pure and were from Boehringer Mannheim with the exceptions of D-glucose and Hepes which were from Sigma Chemical Co, St Louis, Mo. Test compounds were dissolved in DMSO and were added to the incubation reaction minus GST-GK in a volume of 12 μL to yield a final DMSO concentration of 10%. This mix was pre-incubated in the temperature controlled chamber of a SPECTRAmax 250 microplate spectrophotometer (Molecular Devices Corporation, Sunnyvale, Calif.) for 10 minutes to allow temperature equilibrium and then the reaction was started by the addition of 20 μL GST-GK.\nAfter addition of enzyme, the increase in optical density (OD) at 340 nm was monitored spectrophotometrically to determine the rate of change (OD340 per min). The GK activity (OD340/min) in control wells (10% DMSO minus GK activators) was compared with the activity in wells containing test GK activators, and the concentration of activator that produced a 50% increase in the activity of GK, i.e., the SC1.5, was calculated. The table below provides the in vitro glucokinase activity for the compounds in the Examples: […]", "units": {"SC1.5 average (concentration of activator that produced a 50% increase in the activity of GK)": "µM"}, "values": [{"smiles": "O=C(Nc1cnc(C(O)CO)cn1)C(CC1CCCC1)n1ncc(Oc2c(F)cccc2F)cc1=O", "note": "(stereo in doubt) [Example 106, 3-Cyclopentyl-2-[4-(2,6-difluoro-phenoxy)-6-oxo-6H-pyridazin-1-yl]-N-[5-((R)-1,2-dihydroxy-ethyl)-pyrazin-2-yl]-propionamide]", "SC1.5 average (concentration of activator that produced a 50% increase in the activity of GK)": 0.082}, {"smiles": "CC(C)(O)Cn1ccc(NC(=O)C(CC2CCCC2)n2ncc(Oc3ccccc3)cc2=O)n1", "note": "(stereo not drawn) [Example 1, 3-Cyclopentyl-N-[1-(2-hydroxy-2-methyl-propyl)-1H-pyrazol-3-yl]-2-(6-oxo-4-phenoxy-6H-pyridazin-1-yl)-propionamide]", "SC1.5 average (concentration of activator that produced a 50% increase in the activity of GK)": 0.707}, {"smiles": "Cc1nsc(NC(=O)C(CC2CCCC2)n2ncc(Oc3ccccc3)cc2=O)n1", "note": "(stereo not drawn) [Example 3, 3-Cyclopentyl-N-(3-methyl-[1,2,4]thiadiazol-5-yl)-2-(6-oxo-4-phenoxy-6H-pyridazin-1-yl)-propionamide]", "SC1.5 average (concentration of activator that produced a 50% increase in the activity of GK)": 2.07}, {"smiles": "Cc1nnc(NC(=O)C(CC2CCCC2)n2ncc(Oc3ccccc3)cc2=O)s1", "note": "(stereo not drawn) [Example 4, 3-Cyclopentyl-N-(5-methyl-[1,3,4]thiadiazol-2-yl)-2-(6-oxo-4-phenoxy-6H-pyridazin-1-yl)-propionamide]", "SC1.5 average (concentration of activator that produced a 50% increase in the activity of GK)": 6.205}, {"smiles": "CC(C)(O)Cn1ccc(NC(=O)C(CC2CCCC2)n2ncc(Oc3ccc(C(F)(F)F)cc3)cc2=O)n1", "note": "(stereo not drawn) [Example 5, 3-Cyclopentyl-N-[1-(2-hydroxy-2-methyl-propyl)-1H-pyrazol-3-yl]-2-[6-oxo-4-(4-trifluoromethyl-phenoxy)-6H-pyridazin-1-yl]-propionamide]", "SC1.5 average (concentration of activator that produced a 50% increase in the activity of GK)": 2.267}, {"smiles": "CC(C)(O)Cn1ccc(NC(=O)C(CC2CCCC2)n2ncc(Oc3cccc(C(F)(F)F)c3)cc2=O)n1", "note": "(stereo not drawn) [Example 6, 3-Cyclopentyl-N-[1-(2-hydroxy-2-methyl-propyl)-1H-pyrazol-3-yl]-2-[6-oxo-4-(3-trifluoromethyl-phenoxy)-6H-pyridazin-1-yl]-propionamide]", "SC1.5 average (concentration of activator that produced a 50% increase in the activity of GK)": 0.844}, {"smiles": "COc1cccc(Oc2cnn(C(CC3CCCC3)C(=O)Nc3ccn(CC(C)(C)O)n3)c(=O)c2)c1", "note": "(stereo not drawn) [Example 7, 3-Cyclopentyl-N-[1-(2-hydroxy-2-methyl-propyl)-1H-pyrazol-3-yl]-2-[4-(3-methoxy-phenoxy)-6-oxo-6H-pyridazin-1-yl]-propionamide]", "SC1.5 average (concentration of activator that produced a 50% increase in the activity of GK)": 0.428}, {"smiles": "CC(C)(O)Cn1ccc(NC(=O)C(CC2CCCC2)n2ncc(OCC3CCCC3)cc2=O)n1", "note": "(stereo not drawn) [Example 9, 3-Cyclopentyl-2-(4-cyclopentylmethoxy-6-oxo-6H-pyridazin-1-yl)-N-[1-(2-hydroxy-2-methyl-propyl)-1H-pyrazol-3-yl]-propionamide]", "SC1.5 average (concentration of activator that produced a 50% increase in the activity of GK)": 1.548}, {"smiles": "CC(C)(O)Cn1ccc(NC(=O)C(CC2CCCC2)n2ncc(OCC3CCCC3)c(Cl)c2=O)n1", "note": "(stereo not drawn) [Example 10, 2-(5-Chloro-4-cyclopentylmethoxy-6-oxo-6H-pyridazin-1-yl)-3-cyclopentyl-N-[1-(2-hydroxy-2-methyl-propyl)-1H-pyrazol-3-yl]-propionamide]", "SC1.5 average (concentration of activator that produced a 50% increase in the activity of GK)": 11.438}, {"smiles": "CC(C)(O)Cn1ccc(NC(=O)[C@H](CC2CCCC2)n2ncc(Oc3ccccc3C(F)(F)F)cc2=O)n1", "note": "[Example 11A, (S)-3-Cyclopentyl-N-[1-(2-hydroxy-2-methyl-propyl)-1H-pyrazol-3-yl]-2-[6-oxo-4-(2-trifluoromethyl-phenoxy)-6H-pyridazin-1-yl]-propionamide]", "SC1.5 average (concentration of activator that produced a 50% increase in the activity of GK)": 0.099}, {"smiles": "CC(C)(O)Cn1ccc(NC(=O)[C@@H](CC2CCCC2)n2ncc(Oc3ccccc3C(F)(F)F)cc2=O)n1", "note": "[Example 11B, (R)-3-Cyclopentyl-N-[1-(2-hydroxy-2-methyl-propyl)-1H-pyrazol-3-yl]-2-[6-oxo-4-(2-trifluoromethyl-phenoxy)-6H-pyridazin-1-yl]-propionamide]", "SC1.5 average (concentration of activator that produced a 50% increase in the activity of GK)": 6.893}, {"smiles": "COc1ccc(Oc2cnn(C(CC3CCCC3)C(=O)Nc3ccn(CC(C)(C)O)n3)c(=O)c2)cc1", "note": "(stereo not drawn) [Example 15, 3-Cyclopentyl-N-[1-(2-hydroxy-2-methyl-propyl)-1H-pyrazol-3-yl]-2-[4-(4-methoxy-phenoxy)-6-oxo-6H-pyridazin-1-yl]-propionamide]", "SC1.5 average (concentration of activator that produced a 50% increase in the activity of GK)": 1.025}, {"smiles": "COC(=O)c1cc(NC(=O)C(CC2CCCC2)n2ncc(Oc3ccccc3C(F)(F)F)cc2=O)nn1C", "note": "(stereo not drawn) [Example 16, 5-{3-Cyclopentyl-2-[6-oxo-4-(2-trifluoromethyl-phenoxy)-6H-pyridazin-1-yl]-propionylamino}-2-methyl-2H-pyrazole-3-carboxylic acid methyl ester]", "SC1.5 average (concentration of activator that produced a 50% increase in the activity of GK)": 4.548}, {"smiles": "CC(C)(O)Cn1ccc(NC(=O)[C@H](CC2CCCC2)n2ncc(Oc3cccc4c3CCCC4)cc2=O)n1", "note": "[Example 17A, (S)-3-Cyclopentyl-N-[1-(2-hydroxy-2-methyl-propyl)-1H-pyrazol-3-yl]-2-[6-oxo-4-(5,6,7,8-tetrahydro-naphthalen-1-yloxy)-6H-pyridazin-1-yl]-propionamide]", "SC1.5 average (concentration of activator that produced a 50% increase in the activity of GK)": 0.051}, {"smiles": "CC(C)(O)Cn1ccc(NC(=O)[C@@H](CC2CCCC2)n2ncc(Oc3cccc4c3CCCC4)cc2=O)n1", "note": "[Example 17B, (R)-3-Cyclopentyl-N-[1-(2-hydroxy-2-methyl-propyl)-1H-pyrazol-3-yl]-2-[6-oxo-4-(5,6,7,8-tetrahydro-naphthalen-1-yloxy)-6H-pyridazin-1-yl]-propionamide]", "SC1.5 average (concentration of activator that produced a 50% increase in the activity of GK)": 9.14}, {"smiles": "CC(C)(O)Cn1ccc(NC(=O)C(CC2CCCC2)n2ncc(Oc3cccc(F)c3)cc2=O)n1", "note": "(stereo not drawn) [Example 18, 3-Cyclopentyl-2-[4-(3-fluoro-phenoxy)-6-oxo-6H-pyridazin-1-yl]-N-[1-(2-hydroxy-2-methyl-propyl)-1H-pyrazol-3-yl]-propionamide]", "SC1.5 average (concentration of activator that produced a 50% increase in the activity of GK)": 0.634}, {"smiles": "CC(C)(O)Cn1ccc(NC(=O)[C@H](CC2CCCC2)n2ncc(Oc3ccccc3F)cc2=O)n1", "note": "[Example 19A, (S)-3-Cyclopentyl-2-[4-(2-fluoro-phenoxy)-6-oxo-6H-pyridazin-1-yl]-N-[1-(2-hydroxy-2-methyl-propyl)-1H-pyrazol-3-yl]-propionamide]", "SC1.5 average (concentration of activator that produced a 50% increase in the activity of GK)": 0.104}, {"smiles": "CC(C)(O)Cn1ccc(NC(=O)[C@@H](CC2CCCC2)n2ncc(Oc3ccccc3F)cc2=O)n1", "note": "[Example 19B, (R)-3-Cyclopentyl-2-[4-(2-fluoro-phenoxy)-6-oxo-6H-pyridazin-1-yl]-N-[1-(2-hydroxy-2-methyl-propyl)-1H-pyrazol-3-yl]-propionamide]", "SC1.5 average (concentration of activator that produced a 50% increase in the activity of GK)": 3.411}, {"smiles": "CC(C)(O)Cn1ccc(NC(=O)C(CC2CCCC2)n2ncc(Oc3cccc4ccccc34)cc2=O)n1", "note": "(stereo not drawn) [Example 20]", "SC1.5 average (concentration of activator that produced a 50% increase in the activity of GK)": 0.058}, {"smiles": "CC(C)(O)Cn1ccc(NC(=O)C(CC2CCCC2)n2ncc(Oc3ccccc3C3CCCCC3)cc2=O)n1", "note": "(stereo not drawn) [Example 21, 2-[4-(2-Cyclohexyl-phenoxy)-6-oxo-6H-pyridazin-1-yl]-3-cyclopentyl-N-[1-(2-hydroxy-2-methyl-propyl)-1H-pyrazol-3-yl]-propionamide]", "SC1.5 average (concentration of activator that produced a 50% increase in the activity of GK)": 0.873}, {"smiles": "CC(C)(O)Cn1ccc(NC(=O)[C@H](CC2CCCC2)n2ncc(Oc3ccccc3C3CCCC3)cc2=O)n1", "note": "[Example 22A, (S)-3-Cyclopentyl-2-[4-(2-cyclopentyl-phenoxy)-6-oxo-6H-pyridazin-1-yl]-N-[1-(2-hydroxy-2-methyl-propyl)-1H-pyrazol-3-yl]-propionamide]", "SC1.5 average (concentration of activator that produced a 50% increase in the activity of GK)": 0.263}]}]}
